Activity calls are given as the source filed them. For most assays here, no stated cut-off is given here; in the data, actives have a measured Kd and inactives only a lower limit.
Experiments:
Septin-9 = target: T1, Septin-9 (Homo sapiens, UniProt Q9UHD8)
T1 sequence (Q9UHD8 whole entry): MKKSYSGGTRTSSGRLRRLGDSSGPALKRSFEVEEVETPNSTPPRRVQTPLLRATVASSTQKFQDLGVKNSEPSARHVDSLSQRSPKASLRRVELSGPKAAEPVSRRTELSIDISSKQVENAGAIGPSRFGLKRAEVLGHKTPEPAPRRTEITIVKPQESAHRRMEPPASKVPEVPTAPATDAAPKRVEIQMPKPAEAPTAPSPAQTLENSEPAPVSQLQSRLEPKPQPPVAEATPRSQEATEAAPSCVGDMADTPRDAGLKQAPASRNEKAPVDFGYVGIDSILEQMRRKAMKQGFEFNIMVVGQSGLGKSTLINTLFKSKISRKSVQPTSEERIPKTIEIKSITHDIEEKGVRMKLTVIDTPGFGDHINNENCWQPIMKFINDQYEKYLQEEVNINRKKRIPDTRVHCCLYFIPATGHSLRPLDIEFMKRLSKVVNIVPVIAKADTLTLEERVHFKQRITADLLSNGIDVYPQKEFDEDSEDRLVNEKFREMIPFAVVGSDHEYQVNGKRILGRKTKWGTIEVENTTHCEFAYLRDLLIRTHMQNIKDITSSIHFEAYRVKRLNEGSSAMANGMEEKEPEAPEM

[1] = target: Mitogen-activated protein kinase 9 (Homo sapiens, UniProt P45984)
Mitogen-activated protein kinase 9, sequence (P45984 whole entry): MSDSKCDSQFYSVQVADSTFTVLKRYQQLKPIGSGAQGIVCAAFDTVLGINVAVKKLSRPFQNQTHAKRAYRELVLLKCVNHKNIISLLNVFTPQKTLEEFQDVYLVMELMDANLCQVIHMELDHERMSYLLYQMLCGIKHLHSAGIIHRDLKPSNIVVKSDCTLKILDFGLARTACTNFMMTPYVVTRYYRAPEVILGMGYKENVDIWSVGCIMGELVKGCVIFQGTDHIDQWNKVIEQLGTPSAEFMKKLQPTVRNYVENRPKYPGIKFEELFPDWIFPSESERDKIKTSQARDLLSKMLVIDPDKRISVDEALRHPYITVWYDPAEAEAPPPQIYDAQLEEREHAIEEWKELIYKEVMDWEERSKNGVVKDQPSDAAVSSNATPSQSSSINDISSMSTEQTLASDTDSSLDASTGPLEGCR

[2] = target: T2, Ras-related protein Rab-10 (Homo sapiens, UniProt P61026)
T2 sequence (P61026 whole entry): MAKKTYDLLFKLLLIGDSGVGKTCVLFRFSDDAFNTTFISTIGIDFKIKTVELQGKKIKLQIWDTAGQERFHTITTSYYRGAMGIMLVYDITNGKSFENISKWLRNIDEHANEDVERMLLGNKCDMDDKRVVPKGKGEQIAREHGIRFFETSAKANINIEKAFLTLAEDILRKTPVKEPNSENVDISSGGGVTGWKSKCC

[3] = target: Serine/threonine-protein kinase B-raf (Homo sapiens, UniProt P15056)
Serine/threonine-protein kinase B-raf, sequence (P15056 whole entry): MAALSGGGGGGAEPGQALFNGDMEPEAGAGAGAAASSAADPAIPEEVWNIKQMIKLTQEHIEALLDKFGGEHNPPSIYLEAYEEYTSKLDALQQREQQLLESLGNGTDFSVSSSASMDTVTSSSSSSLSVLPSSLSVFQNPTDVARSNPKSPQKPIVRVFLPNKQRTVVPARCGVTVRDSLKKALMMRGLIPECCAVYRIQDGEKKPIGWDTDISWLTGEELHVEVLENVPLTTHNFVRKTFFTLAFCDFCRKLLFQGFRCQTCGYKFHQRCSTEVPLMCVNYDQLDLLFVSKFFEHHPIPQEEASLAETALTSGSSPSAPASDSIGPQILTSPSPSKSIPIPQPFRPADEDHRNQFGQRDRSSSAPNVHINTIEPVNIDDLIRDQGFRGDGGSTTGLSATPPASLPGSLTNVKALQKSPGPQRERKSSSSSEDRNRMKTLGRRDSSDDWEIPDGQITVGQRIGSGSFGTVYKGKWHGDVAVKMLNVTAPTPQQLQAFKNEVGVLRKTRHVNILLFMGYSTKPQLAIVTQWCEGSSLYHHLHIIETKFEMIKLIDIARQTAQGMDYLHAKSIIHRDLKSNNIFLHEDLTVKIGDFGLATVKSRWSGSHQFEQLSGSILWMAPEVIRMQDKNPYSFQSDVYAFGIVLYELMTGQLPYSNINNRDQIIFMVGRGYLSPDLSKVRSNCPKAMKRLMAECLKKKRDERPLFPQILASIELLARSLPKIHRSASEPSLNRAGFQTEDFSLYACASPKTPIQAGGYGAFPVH

[4] = target: Macrophage-stimulating protein receptor (Homo sapiens, UniProt Q04912)
Macrophage-stimulating protein receptor, sequence (Q04912 25-304 limits assumed): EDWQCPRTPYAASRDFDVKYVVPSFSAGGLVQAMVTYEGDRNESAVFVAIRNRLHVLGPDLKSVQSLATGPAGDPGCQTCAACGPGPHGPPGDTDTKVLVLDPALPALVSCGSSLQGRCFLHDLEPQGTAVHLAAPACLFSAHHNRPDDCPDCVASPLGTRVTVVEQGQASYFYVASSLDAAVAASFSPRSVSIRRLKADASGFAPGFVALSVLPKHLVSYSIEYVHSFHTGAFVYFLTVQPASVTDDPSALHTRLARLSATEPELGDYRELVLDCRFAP
Macrophage-stimulating protein receptor, sequence (Q04912 310-1400 limits assumed): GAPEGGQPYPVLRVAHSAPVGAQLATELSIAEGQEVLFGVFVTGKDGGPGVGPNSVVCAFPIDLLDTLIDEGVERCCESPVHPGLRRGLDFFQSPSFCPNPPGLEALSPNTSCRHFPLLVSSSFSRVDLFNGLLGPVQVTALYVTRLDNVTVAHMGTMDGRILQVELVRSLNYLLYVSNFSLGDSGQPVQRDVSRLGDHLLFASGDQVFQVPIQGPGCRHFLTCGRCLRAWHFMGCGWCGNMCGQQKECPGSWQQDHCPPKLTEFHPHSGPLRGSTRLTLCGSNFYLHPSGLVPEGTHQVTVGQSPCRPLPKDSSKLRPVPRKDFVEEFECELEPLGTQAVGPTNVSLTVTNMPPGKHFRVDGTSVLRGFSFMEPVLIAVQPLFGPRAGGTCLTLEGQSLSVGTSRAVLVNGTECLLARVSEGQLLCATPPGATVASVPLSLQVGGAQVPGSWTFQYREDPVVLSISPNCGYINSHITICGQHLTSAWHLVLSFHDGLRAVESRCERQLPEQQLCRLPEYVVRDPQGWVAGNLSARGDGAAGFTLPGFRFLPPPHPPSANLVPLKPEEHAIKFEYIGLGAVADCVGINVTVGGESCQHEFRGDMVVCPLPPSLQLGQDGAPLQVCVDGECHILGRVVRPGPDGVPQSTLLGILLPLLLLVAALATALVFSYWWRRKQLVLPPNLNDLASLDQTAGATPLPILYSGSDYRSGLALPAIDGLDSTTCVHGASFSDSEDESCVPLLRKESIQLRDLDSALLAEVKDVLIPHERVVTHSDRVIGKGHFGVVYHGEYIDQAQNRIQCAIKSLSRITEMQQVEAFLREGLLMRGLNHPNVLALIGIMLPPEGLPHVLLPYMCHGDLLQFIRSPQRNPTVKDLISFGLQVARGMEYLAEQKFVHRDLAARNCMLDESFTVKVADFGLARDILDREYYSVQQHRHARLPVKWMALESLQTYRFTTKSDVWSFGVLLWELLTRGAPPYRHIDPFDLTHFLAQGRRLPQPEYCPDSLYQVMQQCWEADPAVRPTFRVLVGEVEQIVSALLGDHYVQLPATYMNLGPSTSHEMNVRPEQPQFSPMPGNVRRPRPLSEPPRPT

[5] = target: T3, Serine/threonine-protein kinase ULK1 (Homo sapiens, UniProt O75385)
T3 sequence (O75385 whole entry): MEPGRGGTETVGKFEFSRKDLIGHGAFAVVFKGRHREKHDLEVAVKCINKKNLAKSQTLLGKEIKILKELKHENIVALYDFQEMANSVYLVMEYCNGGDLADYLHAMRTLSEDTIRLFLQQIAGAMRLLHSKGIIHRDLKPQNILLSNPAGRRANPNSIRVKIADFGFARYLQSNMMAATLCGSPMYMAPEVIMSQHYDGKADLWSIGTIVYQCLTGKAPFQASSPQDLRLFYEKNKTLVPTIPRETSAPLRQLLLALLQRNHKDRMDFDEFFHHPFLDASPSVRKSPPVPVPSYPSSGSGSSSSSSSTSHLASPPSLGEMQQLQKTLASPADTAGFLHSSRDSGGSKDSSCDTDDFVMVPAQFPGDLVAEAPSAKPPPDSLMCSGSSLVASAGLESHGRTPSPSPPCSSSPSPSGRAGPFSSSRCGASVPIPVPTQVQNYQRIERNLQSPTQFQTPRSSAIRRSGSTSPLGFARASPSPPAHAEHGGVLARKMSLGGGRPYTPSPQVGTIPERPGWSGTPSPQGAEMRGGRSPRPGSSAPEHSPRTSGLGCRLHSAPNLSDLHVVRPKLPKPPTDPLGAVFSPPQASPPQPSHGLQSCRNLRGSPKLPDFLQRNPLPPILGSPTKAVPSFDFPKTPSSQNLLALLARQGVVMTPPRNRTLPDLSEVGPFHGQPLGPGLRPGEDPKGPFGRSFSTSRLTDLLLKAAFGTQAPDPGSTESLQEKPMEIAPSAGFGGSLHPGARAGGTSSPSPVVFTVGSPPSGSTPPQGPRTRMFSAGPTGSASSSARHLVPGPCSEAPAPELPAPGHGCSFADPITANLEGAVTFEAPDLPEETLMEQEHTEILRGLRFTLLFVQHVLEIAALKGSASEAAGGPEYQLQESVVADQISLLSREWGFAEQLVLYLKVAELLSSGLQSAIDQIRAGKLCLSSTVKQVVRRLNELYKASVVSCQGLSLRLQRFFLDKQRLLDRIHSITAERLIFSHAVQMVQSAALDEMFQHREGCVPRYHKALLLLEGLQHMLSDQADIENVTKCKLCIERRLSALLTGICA

[6] = target: Tyrosine-protein kinase Fyn (Homo sapiens, UniProt P06241)
Tyrosine-protein kinase Fyn, sequence (P06241 whole entry): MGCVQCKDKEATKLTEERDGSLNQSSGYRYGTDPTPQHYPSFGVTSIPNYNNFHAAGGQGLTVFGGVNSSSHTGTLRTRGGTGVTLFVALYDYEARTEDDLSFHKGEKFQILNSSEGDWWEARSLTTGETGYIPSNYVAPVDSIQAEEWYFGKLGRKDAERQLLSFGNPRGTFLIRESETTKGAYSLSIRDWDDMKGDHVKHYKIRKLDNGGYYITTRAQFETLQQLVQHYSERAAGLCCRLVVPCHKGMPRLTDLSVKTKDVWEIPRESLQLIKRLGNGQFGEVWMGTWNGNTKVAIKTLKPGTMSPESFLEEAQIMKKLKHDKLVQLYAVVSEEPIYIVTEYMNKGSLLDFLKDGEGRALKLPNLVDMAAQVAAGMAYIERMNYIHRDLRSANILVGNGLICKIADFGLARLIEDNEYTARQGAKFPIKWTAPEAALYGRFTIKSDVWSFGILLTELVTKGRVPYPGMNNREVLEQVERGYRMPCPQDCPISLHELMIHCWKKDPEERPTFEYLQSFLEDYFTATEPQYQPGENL

[7] = target: GTP-binding nuclear protein Ran (Homo sapiens, UniProt P62826)
[8] = target: T4, Ras-related protein Rab-27A (Homo sapiens, UniProt P51159)
T4 sequence (P51159 whole entry): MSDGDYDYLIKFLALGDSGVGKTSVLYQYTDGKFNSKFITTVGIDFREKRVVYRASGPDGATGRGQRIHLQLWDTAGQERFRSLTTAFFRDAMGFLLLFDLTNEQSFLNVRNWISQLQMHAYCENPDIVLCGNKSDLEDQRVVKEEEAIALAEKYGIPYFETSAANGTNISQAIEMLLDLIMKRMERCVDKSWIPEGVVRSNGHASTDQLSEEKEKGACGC

Compound | Kd (Septin-9) | Kd [1] | Kd [2] | Kd [3] | Kd [4] | Kd [5] | Kd [6] | Kd [7] | Kd [8]
O=c1[nH]c([C@@H]2CCCN2)nc2c1oc1ccc(Cl)cc12 | > 30 µM (inactive) | > 30 µM (inactive) | > 30 µM (inactive) | > 30 µM (inactive) | > 30 µM (inactive) | > 30 µM (inactive) | > 30 µM (inactive) | > 30 µM (inactive) | > 30 µM (inactive)
Cn1cc(-c2[nH]c3cc(NC(=O)[C@H](N)C4CCCCC4)cc4c3c2C=NNC4=O)cn1 | > 30 µM (inactive) | > 30 µM (inactive) | > 30 µM (inactive) | > 30 µM (inactive) | > 30 µM (inactive) | > 30 µM (inactive) | 1.34 µM (active) | > 30 µM (inactive) | > 30 µM (inactive)
CCN1CCN(Cc2ccc(Nc3ncc(F)c(-c4cc(F)c5nc(C)n(C(C)C)c5c4)n3)nc2)CC1 [ABEMACICLIB] | > 30 µM (inactive) | > 30 µM (inactive) | > 30 µM (inactive) | > 30 µM (inactive) | > 30 µM (inactive) | > 30 µM (inactive) | > 30 µM (inactive) | > 30 µM (inactive) | > 30 µM (inactive)
Cc1c(NC(=O)OC[C@@H]2COCCN2)cn2ncnc(Nc3ccc4c(cnn4Cc4cccc(F)c4)c3)c12 [AC-480] | > 30 µM (inactive) | > 30 µM (inactive) | > 30 µM (inactive) | > 30 µM (inactive) | > 30 µM (inactive) | > 30 µM (inactive) | > 30 µM (inactive) | > 30 µM (inactive) | > 30 µM (inactive)
CCc1cc2c(cc1N1CCC(N3CCOCC3)CC1)C(C)(C)c1[nH]c3cc(C#N)ccc3c1C2=O [ALECTINIB] | > 30 µM (inactive) | > 30 µM (inactive) | > 30 µM (inactive) | > 30 µM (inactive) | > 30 µM (inactive) | > 30 µM (inactive) | > 30 µM (inactive) | > 30 µM (inactive) | > 30 µM (inactive)
COc1ccc2c(OCc3nnc4ccc(-c5ccccc5)nn34)ccnc2c1 [AMG-208] | > 30 µM (inactive) | > 30 µM (inactive) | > 30 µM (inactive) | > 30 µM (inactive) | > 30 µM (inactive) | > 30 µM (inactive) | > 30 µM (inactive) | > 30 µM (inactive) | > 30 µM (inactive)
S=C(NCc1ccc2c(c1)OCO2)N1CCN(c2ncnc3c2oc2ccccc23)CC1 [AMUVATINIB] | > 30 µM (inactive) | > 30 µM (inactive) | > 30 µM (inactive) | > 30 µM (inactive) | > 30 µM (inactive) | > 30 µM (inactive) | > 30 µM (inactive) | > 30 µM (inactive) | > 30 µM (inactive)
NC[C@@](O)(c1ccc(Cl)cc1)c1ccc(-c2cn[nH]c2)cc1 [AT-13148] | > 30 µM (inactive) | > 30 µM (inactive) | > 30 µM (inactive) | > 30 µM (inactive) | > 30 µM (inactive) | – | > 30 µM (inactive) | > 30 µM (inactive) | > 30 µM (inactive)
Cc1cc(Nc2nc(N[C@@H](C)c3ncc(F)cn3)ncc2Cl)n[nH]1 [AZD-1480] | > 30 µM (inactive) | > 30 µM (inactive) | > 30 µM (inactive) | > 30 µM (inactive) | > 30 µM (inactive) | > 30 µM (inactive) | > 30 µM (inactive) | > 30 µM (inactive) | > 30 µM (inactive)
COc1ccc(-c2ccc3ncc4c(c3c2)n(-c2ccc(N3CCNCC3)c(C(F)(F)F)c2)c(=O)n4C)cn1 [BGT-226 FREE BASE] | > 30 µM (inactive) | > 30 µM (inactive) | > 30 µM (inactive) | > 30 µM (inactive) | > 30 µM (inactive) | > 30 µM (inactive) | > 30 µM (inactive) | > 30 µM (inactive) | > 30 µM (inactive)
COc1cccc(Nc2ncnn3ccc(CN4CC[C@@H](N)[C@H](O)C4)c23)c1 [BMS-690514] | > 30 µM (inactive) | > 30 µM (inactive) | > 30 µM (inactive) | > 30 µM (inactive) | > 30 µM (inactive) | > 30 µM (inactive) | 0.583 µM (active) | > 30 µM (inactive) | > 30 µM (inactive)
COc1cc2nccc(Oc3ccc(NC(=O)C4(C(=O)Nc5ccc(F)cc5)CC4)cc3)c2cc1OC [CABOZANTINIB] | > 30 µM (inactive) | > 30 µM (inactive) | > 30 µM (inactive) | > 30 µM (inactive) | – | > 30 µM (inactive) | > 30 µM (inactive) | > 30 µM (inactive) | > 30 µM (inactive)
COc1cc2ncnc(Nc3ccc(F)c(Cl)c3)c2cc1NC(=O)/C=C/CN1CCCCC1 [DACOMITINIB ANHYDROUS] | > 30 µM (inactive) | > 30 µM (inactive) | – | > 30 µM (inactive) | > 30 µM (inactive) | > 30 µM (inactive) | > 30 µM (inactive) | > 30 µM (inactive) | > 30 µM (inactive)
Cc1c(Cn2c(C)nc3c(C(=O)O)cc(N4CCOCC4)cc32)cccc1C(F)(F)F [GSK-2636771] | > 30 µM (inactive) | > 30 µM (inactive) | > 30 µM (inactive) | > 30 µM (inactive) | > 30 µM (inactive) | > 30 µM (inactive) | > 30 µM (inactive) | > 30 µM (inactive) | –
O=C(O)c1ccc2c(c1)nc(Nc1cccc(Cl)c1)c1ccncc12 [SILMITASERTIB] | > 30 µM (inactive) | > 30 µM (inactive) | > 30 µM (inactive) | > 30 µM (inactive) | > 30 µM (inactive) | 3.66 µM (active) | > 30 µM (inactive) | > 30 µM (inactive) | –
C=CCN(/C=C1/C(=O)O[C@H](COC)[C@@]2(C)C1=C(O)C(=O)C1=C2[C@H](OC(C)=O)C[C@]2(C)C(=O)CC[C@@H]12)CC=C [SONOLISIB] | > 30 µM (inactive) | > 30 µM (inactive) | > 30 µM (inactive) | > 30 µM (inactive) | > 30 µM (inactive) | > 30 µM (inactive) | > 30 µM (inactive) | > 30 µM (inactive) | –
Cc1cc(C(=O)Nc2cc(Oc3ccc4nc(NC(=O)C5CC5)cn4n3)ccc2C)n(C)n1 [TAK-593] | > 30 µM (inactive) | > 30 µM (inactive) | > 30 µM (inactive) | > 30 µM (inactive) | > 30 µM (inactive) | > 30 µM (inactive) | > 30 µM (inactive) | > 30 µM (inactive) | –
Cn1c(=O)c(F)c(Nc2ccc(I)cc2F)c2c(=O)n(C[C@@H](O)CO)cnc21 [TAK-733] | > 30 µM (inactive) | > 30 µM (inactive) | > 30 µM (inactive) | > 30 µM (inactive) | > 30 µM (inactive) | > 30 µM (inactive) | > 30 µM (inactive) | > 30 µM (inactive) | –

Reference: ChEMBL document CHEMBL3991601, “The target landscape of clinical kinase drugs” (Science, 2017)
